Tests used:
[1] = Plasma pharmacokinetics of lithium after oral gavage (ICP-MS)
Method: Male Sprague-Dawley rats weighed between 240-260 g were randomly assigned to two groups. […] These two regimens would provide the same molarity of lithium and benzoate. The chemicals were dissolved in PBS, and then administrated by oral gavage. All rats were fasted overnight with free access to water before experiments. After single dose administration of drugs, the blood samples were then collected at the time point 0, 5, 15, 30, 60, 90, 120, 240, 360, 720, and 1440 min.
Blood samples were collected in tubes coated with sodium heparin from jugular vein catheterized rats. Then, the blood samples were kept on ice and centrifuged at 2,500×g for 15 min at 4° C. The supernatant was collected and then kept frozen at −80° C. until further processing.

[2] = system: MPTP/3-NP-induced C57BL/6J mice; assay: Rotarod in MPTP plus 3-NP intoxicated mice (MSA-P model); format: in vivo, mouse; conditions: 256 mg/kg body weight/day for one week after 9 days MPTP/3-NP, vs saline
Method: Male C57BL/6J mice (age, 8-12 weeks) were randomly assigned to 2 groups—vehicle control and MPTP/3-NP-induced groups. MPTP and 3-NP were administered during a 9-day intoxication period. 3-NP was administered i.p. every 12 h (total dose 450 mg/kg in 9 days) and MPTP i.p. at 10 mg/kg/day (total dose 90 mg/kg in 9 days).
Rotarod motor activity was measured before and after chronic MPTP/3-NP induction, respectively. Time spent on the rod at each level of revolving speed indicated motor performance. Mice were trained at the speed accelerating from 4 to 10 rpm over 5 min before the test (−7, −5, −3 Days). During the test, all animals started at 4 rpm and accelerated from 4 to 20 rpm over 5 min with each mouse experiencing three trials per day with inter-trial interval of 10 min. The average latency time of each mouse to fall is calculated.

[3] = system: MPTP-induced C57BL/6J mice; assay: Pole test in MPTP-induced mice; format: in vivo, mouse; conditions: 256 mg/kg body weight/day after 5 weeks of MPTP 30 mg/kg/day i.p.
Method: Animals were housed and kept in the same condition as previous described. Male C57BL/6J mice (age: 12 weeks) were randomly assigned to 2 groups—vehicle control and MPTP-induced groups. The mice of MPTP-induced group were intraperitoneally injected with MPTP (30 mg/kg body weight/day) for five weeks, while those in the vehicle control group received injections of the same volume of saline. After 5 weeks of MPTP exposure, pole test was performed to elucidate the effect of MPTP-induced disability.
Pole test was used to measure the degree of bradykinesia, a typical symptom of parkinsonism. The animals were positioned head upward near the top of a rough-surfaced pole (1 cm in diameter and 60 cm in height). The time taken until they turned downward (Tturn) and the total time taken to climb down to the floor (TLA), were recorded. When the mouse was not able to turn downward, Tturn was taken as 60 seconds (default value).

primary cortical cells = assay: Oxygen-glucose deprivation (OGD) of primary cortical culture, MTT assay; format: cell-based, rat
Excerpt: The oxygen-glucose deprivation (OGD) is a common and well-validated cell model used for brain injuries like stroke-related studies. […] To induce the OGD model, the Neurobasal medium supplemented with B27 (GIBCO/Life Technologies of Thermo Fisher Scientific Corporation) was removed from the cultures, and then rinsed with Neurobasal-A Medium (no D-glucose and sodium pyruvate [GIBCO/Life Technologies of Thermo Fisher Scientific Corporation]). The cultured cells were maintained in a humidified incubator at 37° C. with 5% CO2 for 1 h to consume the resting glucose and pyruvate. The cultures were then subjected to an anaerobic environment of 95% N2-5% CO2 for 4 hours. Oxygen concentration was monitored by an oxygen analyzer (Proox-110, Demott St, Lacona, N.Y., USA), as maintained at approximately 1.0% throughout the experiment.

## O=C([O-])c1ccccc1.[Li+] [lithium benzoate]
[1]; rat, single oral gavage, NaBen 287.9 mg/kg + Li2CO3 74.2 mg/kg or LiBen 255.3 mg/kg
  Tmax of lithium: 2.208 h
[1]; read-out: Cmax of lithium, rat, single oral gavage, NaBen 287.9 mg/kg + Li2CO3 74.2 mg/kg or LiBen 255.3 mg/kg
  Cmax: 1720 µM
[2]
  retention time on rotarod: significantly improved
[3]
  total time for turning down (TLA), pole test: significantly reduced
  turning time (Tturn), pole test: significantly reduced
Primary cortical cells; overall treatment 53 hours (pre-treatment 24 h, habituation 1 h, OGD 4 h, reperfusion 24 h), 0.3, 1, 3, 5 mM
  cell survival under oxygen-glucose deprivation: significantly protected
Primary cortical cells; post-treatment for 48 hours reperfusion
  cell survival under oxygen-glucose deprivation: cell protection effect at all dose levels
